Assay results: US20040082550A1, “Tropolone derivative” (priority 2000, published 2004)

Tested on: promyelocyte leukemia cell strain HL-60
Experiment: Test for induction of cell differentiation in HL-60 cells (NBT reduction ability)
Type: cell-based
Conditions: for Ratio of cells for which differentiation was induced by each compound alone (%): calculated from NBT reduction ability; for Ratio of cells for which differentiation was induced by each compound in combination with 1 × 10^−7 M of HX630 (%): in combination with 1×10^−7 M HX630 (retinoid synergist)
Experimental: For each of the compounds of the examples, action for inducing cell differentiation was examined for each alone and in combination with 1×10^−7 M of HX630. According to the methods described in Japanese Patent Unexamined Publication (KOKAI) No. (Sho)61-76440/1986, differentiation of the cells of promyelocyte leukemia cell strain HL-60 into granulocytic series cells was determined based on morphological change and measurement of ability to reduce nitro blue tetrazolium (NBT). The ratios (%) of differentiated cells shown in the following table are those calculated from NBT reduction ability. HX630 is a retinoid synergist that enhances actions of retinoids, and the concentrations of −8, −7 and −6 mean that each compound was added at concentrations of 1×10^−8 M, 1×10^−7 M and 1×10^−6 M, respectively.

[1] = compound concentration -6 (1×10^−6 M)
[2] = compound concentration -7 (1×10^−7 M)
[3] = compound concentration -8 (1×10^−8 M)

| SMILES | Ratio of cells for which differentiation was induced by each compound alone (%) (concentration -6 (1×10^−6 M)) | Ratio of cells for which differentiation was induced by each compound alone (%) (concentration -7 (1×10^−7 M)) | Ratio of cells for which differentiation was induced by each compound alone (%) (concentration -8 (1×10^−8 M)) | Ratio of cells for which differentiation was induced by each compound in combination with 1 × 10^−7 M of HX630 (%) [1] [%] | Ratio of cells for which differentiation was induced by each compound in combination with 1 × 10^−7 M of HX630 (%) [2] [%] | Ratio of cells for which differentiation was induced by each compound in combination with 1 × 10^−7 M of HX630 (%) [3] [%] |
| --- | --- | --- | --- | --- | --- | --- |
| CC1(C)CCC(C)(C)c2cc(C(=O)Nc3ccc(O)c(=O)cc3)ccc21 [Tp80] | 21 | 26 | 7 | 79 | 85 | 82 |
| CN(C(=O)c1ccc2c(c1)C(C)(C)CCC2(C)C)c1ccc(O)c(=O)cc1 [Tp82] | 1.4 | 1.2 | 0.5 | 42 | 7 | 1.9 |
| Cc1cc2c(cc1C(=O)Nc1ccc(O)c(=O)cc1)C(C)(C)CCC2(C)C [Tp84] | 26 | 5 | 0.7 | 90 | 89 | 15 |
| CC1(C)CCC(C)(C)c2cc(C=CC(=O)Nc3ccc(O)c(=O)cc3)ccc21 [Tp90] | 67 | 0.9 | 0.7 | 43 | 2.1 | 1.5 |
| CC1(C)CCC(C)(C)c2cc(C=CC(=O)Nc3ccc(Cl)c(=O)cc3)ccc21 [Tp93] | 9 | 0.8 | 0.6 | 40 | 0.8 | 3.6 |
| CC1(C)CCC(C)(C)c2cc(C=CC=CC(=O)Nc3ccc(O)c(=O)cc3)ccc21 [Tp95] | 0.3 | 0.5 | 0.5 | 1.7 | 0.5 | 0.8 |
| COc1ccc(C#Cc2ccc3c(c2)C(C)(C)CCC3(C)C)ccc1=O [Tp141] | 6.4 | 3.3 | 2.2 | 84 | 7 | 4.1 |
| Cc1cc2c(cc1C#Cc1ccc(O)c(=O)cc1)C(C)(C)CCC2(C)C [Tp145] | 70 | 76 | 73 | 77 | 75 | 82 |
| CC1(C)CCC(C)(C)c2cc(C#Cc3ccc(NN)c(=O)cc3)ccc21 [Tp146] | 69 | 2.2 | 3.6 | 83 | 91 | 66 |
| CC1(C)CCC(C)(C)c2cc(C#Cc3cccc(=O)cc3)ccc21 [Tp149] | 40 | 4 | 1.4 | 40 | 85 | 3.5 |
| CC1(C)CCC(C)(C)c2cc(CCc3ccc(O)c(=O)cc3)ccc21 [Tp150] | 60 | 5.4 | 1.5 | 50 | 80 | 9 |
| CC(C)(C)c1cc(C#Cc2ccc(O)c(=O)cc2)cc(C(C)(C)C)c1 [Tp155] | 62.5 | 24 | 2.7 | 78 | 89 | 68 |
| CC1(C)CCC(C)(C)c2cc(N=Nc3ccc(O)c(=O)cc3)ccc21 [Tp160] | 32 | 34.4 | 18.5 | 90 | 84 | 81 |
| CC(C)(C)c1cc(N=Nc2ccc(O)c(=O)cc2)cc(C(C)(C)C)c1 [Tp170] | 2.3 | 0.8 | 1.1 | 10 | 2.3 | 0.5 |
| CC1(C)CCC(C)(C)c2cc(-c3cccc(-c4ccc(O)c(=O)cc4)c3)ccc21 [Tp190] | 0 | 32 | 1.6 | 50 | 90 | 77 |
| CC1(C)CCC(C)(C)c2cc(-c3ccc(-c4ccc(O)c(=O)cc4)o3)ccc21 [Tp200] | 36 | 14 | 2 | 50 | 95 | 77 |
